# Target: T1, Human MTHFD2 (Homo sapiens, UniProt P13995)
# T1 construct: residues 36-350 in Uniport ID P13995; His6 (N); made in house; host or cells: E. coli
# T1 sequence (P13995 36-350): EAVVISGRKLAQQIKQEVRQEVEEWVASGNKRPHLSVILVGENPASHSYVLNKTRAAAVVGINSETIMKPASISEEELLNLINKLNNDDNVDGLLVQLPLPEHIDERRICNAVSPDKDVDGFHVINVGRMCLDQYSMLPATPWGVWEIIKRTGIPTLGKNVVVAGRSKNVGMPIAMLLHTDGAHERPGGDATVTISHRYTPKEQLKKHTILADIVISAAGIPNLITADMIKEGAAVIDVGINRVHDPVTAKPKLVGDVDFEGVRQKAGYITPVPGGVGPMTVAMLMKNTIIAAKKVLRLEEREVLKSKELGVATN
# Assay: MTHFD2 Activity Assay (dehydrogenase activity, diaphorase/resazurin coupled fluorescence)
# Assay type: biochemical
# Details: inhibitory activity (IC50 and/or binding constant); 0.2 nM MTHFD2, 11 concentrations
# Method in brief: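 Resorufin fluorescence (ex 525, em 598 nm) reports NADH formed by the dehydrogenase via diaphorase coupling. Enzyme (0.2 nM, residues 36-350, N-His6) sat with compound 15 min before 70 μM CH2-THF and 1 mM NAD+ started a 30 min reaction. IC50s come from 4-parameter fits over 11 concentrations.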
row,IC50 [µM],Structure (SMILES)
1,0.01 to 1,"Cn1c(NC2CC2)nc2c1c(=O)n(Cc1ccc(Cl)c(Cl)c1)c(=O)n2C [Example 271, 8-(cyclopropylamino)-1-[(3,4-dichlorophenyl)methyl]-3,7-dimethyl-purine-2,6-dione]"
2,0.01 to 1,"Cn1c(Nc2ccnc(CCC(=O)N3CCNCC3)n2)nc2c1c(=O)n(Cc1cc3c(Cl)cccc3[nH]1)c(=O)n2C [Example 428, 1-((4-chloro-1H-indol-2-yl)methyl)-3,7-dimethyl-8-(2-(3-oxo-3-(piperazin-1-yl)propyl)pyrimidin-4-ylamino)-1H-purine-2,6(3H,7H)-dione]"
3,5 to 10,"Cn1c(=O)c2c(nc(CCN)n2C)n(C)c1=O [Example 394, 8-(2-aminoethyl)-1,3,7-trimethyl-1H-purine-2,6(3H,7H)-dione]"
4,0.01 to 1,"C[C@@H](O)CNc1nc2c(c(=O)n(Cc3ccc(Cl)c(Cl)c3)c(=O)n2C)n1C [Example 9, 1-[(3,4-dichlorophenyl)methyl]-8-{[(2R)-2-hydroxypropyl]amino}-3,7-dimethyl-2,3,6,7-tetrahydro-1H-purine-2,6-dione]"
5,0.01 to 1,"Cn1c(C(N)C2CCC2)nc2c1c(=O)n(Cc1cc3c(Cl)cccc3[nH]1)c(=O)n2C (stereo not drawn) [Example 443, 8-[amino(cyclobutyl)methyl]-1-[(4-chloro-1H-indol-2-yl)methyl]-3,7-dimethyl-purine-2,6-dione]"
6,1 to 5,"Cn1c(-n2ncnc2N)nc2c1c(=O)n(Cc1ccc(Cl)c(Cl)c1)c(=O)n2C [Example 143, 8-(5-amino-1H-1,2,4-triazol-1-yl)-1-(3,4-dichlorobenzyl)-3,7-dimethyl-1H-purine-2,6(3H,7H)-dione]"
7,0.01 to 1,"Cn1c(Nc2cccc([C@@H]3C[C@H]3C(=O)O)n2)nc2c1c(=O)n(Cc1cc3c(Cl)cccc3[nH]1)c(=O)n2C (single isomer, unassigned) [Example 398, (1R,2R)-2-(6-((1-((4-chloro-1H-indol-2-yl)methyl)-3,7-dimethyl-2,6-dioxo-2,3,6,7-tetrahydro-1H-purin-8-yl)amino)pyridin-2-yl)cyclopropanecarboxylic acid or (1S,2S)-2-(6-((1-((4-chloro-1H-indol-2-yl)methyl)-3,7-dimethyl-2,6-dioxo-2,3,6,7-tetrahydro-1H-purin-8-yl)amino)pyridin-2-yl)cyclopropanecarboxylic acid]"
8,0.01 to 1,"Cn1c(N[C@H]2CC[C@@H](C(=O)O)C2)nc2c1c(=O)n(Cc1ccc3sccc3c1)c(=O)n2C [Example 87, (1R,3S)-3-{[1-(1-benzothiophen-5-ylmethyl)-3,7-dimethyl-2,6-dioxo-2,3,6,7-tetrahydro-1H-purin-8-yl]amino}cyclopentane-1-carboxylic acid]"
9,1 to 5,"Cn1c(NCc2ccncc2)nc2c1c(=O)n(Cc1ccc(Cl)c(Cl)c1)c(=O)n2C [Example 118, 1-(3,4-dichlorobenzyl)-3,7-dimethyl-8-(pyridin-4-ylmethylamino)-1H-purine-2,6(3H,7H)-dione]"
10,0.01 to 1,"Cn1c(Nc2ccnc(CCC(=O)O)n2)nc2c1c(=O)n(Cc1cc3c(Cl)cccc3[nH]1)c(=O)n2C [Example 355, 3-(4-(1-((4-chloro-1H-indol-2-yl)methyl)-3,7-dimethyl-2,6-dioxo-2,3,6,7-tetrahydro-1H-purin-8-ylamino)pyrimidin-2-yl)propanoic acid]"
11,> 10,"C[C@H](O)CNc1nc2c(c(=O)n(Cc3ccc(F)c(F)c3)c(=O)n2C)n1C [Example 30, 1-[(3,4-difluorophenyl)methyl]-8-{[(2S)-2-hydroxypropyl]amino}-3,7-dimethyl-2,3,6,7-tetrahydro-1H-purine-2,6-dione]"
12,0.01 to 1,"Cn1c(NC[C@@H](O)CO)nc2c1c(=O)n(Cc1ccc(Cl)c(Cl)c1)c(=O)n2C [Example 13, 1-[(3,4-dichlorophenyl)methyl]-8-{[(2R)-2,3-dihydroxypropyl]amino}-3,7-dimethyl-2,3,6,7-tetrahydro-1H-purine-2,6-dione]"
13,0.01 to 1,"Cn1c(Nc2ccncn2)nc2c1c(=O)n(Cc1cc3c(Cl)cccc3[nH]1)c(=O)n2C [Example 362, 1-((4-chloro-1H-indol-2-yl)methyl)-3,7-dimethyl-8-(pyrimidin-4-ylamino)-3,7-dihydro-1H-purine-2,6-dione]"
14,0.01 to 1,"Cn1c(Nc2ccncc2)nc2c1c(=O)n(Cc1cc3c(Cl)cccc3[nH]1)c(=O)n2C1CC1 [Example 466, 1-[(4-chloro-1H-indol-2-yl)methyl]-3-cyclopropyl-7-methyl-8-(4-pyridylamino)purine-2,6-dione]"
15,0.01 to 1,"Cn1c(Nc2ccncc2)nc2c1c(=O)n(Cc1cc3c(C4CC4)cccc3[nH]1)c(=O)n2C [Example 401, 1-((4-cyclopropyl-1H-indol-2-yl)methyl)-3,7-dimethyl-8-(pyridin-4-ylamino)-1H-purine-2,6(3H,7H)-dione]"
16,1 to 5,"Cn1c(Nc2ccnc(C(=O)O)c2)nc2c1c(=O)n(Cc1ccc(Cl)c(Cl)c1)c(=O)n2C [Example 303, 4-(1-(3,4-dichlorobenzyl)-3,7-dimethyl-2,6-dioxo-2,3,6,7-tetrahydro-1H-purin-8-ylamino)picolinic acid]"
17,> 10,"Cn1c(N[C@@H]2CC[C@@H](O)C2)nc2c(=O)n(Cc3ccc(Cl)c(Cl)c3)c(=O)n(C)c21 [Example 262, 1-(3,4-dichlorobenzyl)-8-((1R,3R)-3-hydroxycyclopentylamino)-3,9-dimethyl-1H-purine-2,6(3H,9H)-dione]"
18,0.01 to 1,"Cn1c(Nc2ccncc2)nc2c1c(=O)n(Cc1ccc3ccccc3c1Cl)c(=O)n2C [Example 375, 1-((1-chloronaphthalen-2-yl)methyl)-3,7-dimethyl-8-(pyridin-4-ylamino)-1H-purine-2,6(3H,7H)-dione]"
19,1 to 5,"Cn1c(NCCC#N)nc2c1c(=O)n(Cc1ccc(Cl)c(Cl)c1)c(=O)n2C [Example 131, 3-(1-(3,4-dichlorobenzyl)-3,7-dimethyl-2,6-dioxo-2,3,6,7-tetrahydro-1H-purin-8-ylamino)propanenitrile]"
20,0.01 to 1,"Cn1c(Nc2cccc(N)n2)nc2c1c(=O)n(Cc1ccc(Cl)c(Cl)c1)c(=O)n2C [Example 150, 8-(6-aminopyridin-2-ylamino)-1-(3,4-dichlorobenzyl)-3,7-dimethyl-1H-purine-2,6(3H,7H)-dione]"
21,0.01 to 1,"Cn1c(Nc2ccc(CC(=O)O)cc2)nc2c1c(=O)n(Cc1cc3c(Cl)cccc3[nH]1)c(=O)n2C [Example 345, 2-[4-[[1-[(4-chloro-1H-indol-2-yl)methyl]-3,7-dimethyl-2,6-dioxo-purin-8-yl]amino]phenyl]acetic acid]"
22,0.01 to 1,"Cc1cccc2[nH]c(Cn3c(=O)c4c(nc(Nc5ccncc5)n4C)n(C)c3=O)c(C)c12 [Example 419, 1-((3,4-dimethyl-1H-indol-2-yl)methyl)-3,7-dimethyl-8-(pyridin-4-ylamino)-1H-purine-2,6(3H,7H)-dione]"
23,0.01 to 1,"Cn1c(C(N)c2ccccn2)nc2c1c(=O)n(Cc1cc3c(Cl)cccc3[nH]1)c(=O)n2C (stereo not drawn) [Example 473, 8-(amino(pyridin-2-yl)methyl)-1-((4-chloro-1H-indol-2-yl)methyl)-3,7-dimethyl-1H-purine-2,6(3H,7H)-dione]"
24,0.01 to 1,"Cn1c(Nc2ccnc(CCC(N)=O)c2)nc2c1c(=O)n(Cc1ccc(Cl)c(Cl)c1)c(=O)n2C [Example 283, 3-(4-(1-(3,4-dichlorobenzyl)-3,7-dimethyl-2,6-dioxo-2,3,6,7-tetrahydro-1H-purin-8-ylamino)pyridin-2-yl)propanamide]"

# From patent US12187728B2 (Raze Therapeutics, Inc., priority 2015, dated 2025)
